# Experimental data published in US4250178A, “Amides derived from carboxyl-5 pyrimidines” (Delalande S.A., priority 1978, dated 1981).
# Where a name gives a salt, the structure may show the parent alone.
# Experiments:
# [1] = acute toxicity in mice, intraperitoneal (Miller and Tainter); details: mouse, in vivo, ip, read-out: Acute toxicity (mice) LD 50
# Text: The acute toxicity was studied in mice intraperitoneally and the lethal doses estimated according to the method described by Miller and Tainter in Proc. Soc. Exper.
# [2] = test system: apomorphine straightening; test: test of antagonism to apomorphine straightening in mice, intraperitoneal (Gouret); type: in vivo; details: Mus musculus, ip, read-out: Apomorphine straightening ED 50
Structure (SMILES),LD50 [1],ED50 [2]
CCN(CC)CCNC(=O)c1cnc(N)nc1OC [76.0745],650 mg/kg,30 mg/kg
CCN1CCCC1CNC(=O)c1cnc(N)nc1OC (stereo not shown) [76.0843],300 mg/kg,6 mg/kg
COc1ccccc1N1CCN(CCNC(=O)c2cnc(N)nc2OC)CC1 [76.0994],150 mg/kg,3 mg/kg
COc1nc(N)ncc1C(=O)NC1CCN(Cc2ccccc2)CC1 [77.0208],500 mg/kg,3.5 mg/kg
CCN(CCNC(=O)c1cnc(N)nc1OC)Cc1ccccc1 [77.0489],330 mg/kg,3 mg/kg
CCOc1nc(N)ncc1C(=O)NCCN(CC)CC [77.0508],300 mg/kg,30 mg/kg
"COc1nc(N)ncc1C(=O)NCCN(C)Cc1ccccc1 [77.0512, 1-[5-(2-amino 4-methoxypyrimidinyl)carboxamido] 2-[N-methyl N-benzylamino] ethane]",400 mg/kg,10 mg/kg
CCOc1nc(N)ncc1C(=O)NCC1CCCN1CC (stereo not shown) [77.0540],150 mg/kg,3 mg/kg
COc1nc(N)ncc1C(=O)NCCNc1ccccc1 [77.0580],400 mg/kg,30 mg/kg
CCCOc1nc(N)ncc1C(=O)NCC1CCCN1CC (stereo not shown) [77.0621],150 mg/kg,15 mg/kg
CCN(CC)CCNC(=O)c1cnc(C)nc1OC [77.0766],300 mg/kg,12 mg/kg
CCN1CCCC1CNC(=O)c1cnc(C)nc1OC (stereo not shown) [77.0805],200 mg/kg,7 mg/kg
CCN(CC)CCNC(=O)c1cnc(SC)nc1OC [77.0806],150 mg/kg,30 mg/kg
CCN1CCCC1CNC(=O)c1cncnc1OC (stereo not shown) [77.0807],300 mg/kg,18.5 mg/kg
CCN1CCCC1CNC(=O)c1cnc(SC)nc1OC (stereo not shown) [77.0840],95 mg/kg,10 mg/kg
"COc1nc(N)ncc1C(=O)NCCN1CCc2ccccc2C1 [77.0862, 1-[5-(2-amino 4-methoxypyrimidinyl)carboxamido] 2-[(tetrahydro 1,2,3,4)isoquinolin-2-yl] ethane]",300 mg/kg,30 mg/kg
CCN1CCCC1CNC(=O)c1cnc(N)nc1OC(C)C (stereo not shown) [77.0871],170 mg/kg,30 mg/kg
CC(C)Oc1nc(N)ncc1C(=O)NC1CCN(Cc2ccccc2)CC1 [77.0872],115 mg/kg,11 mg/kg
COc1nc(C)ncc1C(=O)NC1CCN(Cc2ccccc2)CC1 [77.0878],150 mg/kg,10 mg/kg
COc1nc(N)ncc1C(=O)NCC1CCCN1Cc1ccccc1 (stereo not shown) [77.0880],180 mg/kg,9 mg/kg
COc1ncncc1C(=O)NC1CCN(Cc2ccccc2)CC1 [77.0886],125 mg/kg,17.5 mg/kg
COc1nc(N)ncc1C(=O)NC1CCN(Cc2ccccc2)C1 (stereo not shown) [77.0958],150 mg/kg,1.5 mg/kg
COc1nc(N)ncc1C(=O)NC1CCN(C2CCCCC2)C1 (stereo not shown) [77.1006],175 mg/kg,3 mg/kg

Structure (SMILES),LD50 [1],ED50 [2]
COc1nc(N(C)C)ncc1C(=O)NC1CCN(Cc2ccccc2)CC1 [77.1011],25 mg/kg,2.7 mg/kg
CCCCN1CCCC1CNC(=O)c1cnc(N)nc1OC (stereo not shown) [77.1012],110 mg/kg,7 mg/kg
COc1nc(N)ncc1C(=O)N1CC1 [77.1017],300 mg/kg,15 mg/kg
COc1nc(N)ncc1C(=O)NCC1CCCN1Cc1ccc(F)cc1 (stereo not shown) [77.1047],130 mg/kg,4.5 mg/kg
CCN1CCCC1CNC(=O)c1cnc(N(C)C)nc1OC (stereo not shown) [77.1057],130 mg/kg,1.3 mg/kg
CCN(CC)CCNC(=O)c1cnc(N(C)C)nc1OC [77.1075],200 mg/kg,16 mg/kg
CCN1CCCC1CNC(=O)c1cnc(OC)nc1OC (stereo not shown) [77.1243],150 mg/kg,15 mg/kg
COc1ncc(C(=O)NC2CCN(Cc3ccccc3)CC2)c(OC)n1 [77.1244],180 mg/kg,10 mg/kg
"CCN1CCCC1CNC(=O)c1cc(S(N)(=O)=O)ccc1OC (stereo not shown) [SULPIRIDE, Sulpiride, reference compound]",,37 mg/kg
CCCN1CCCC1CNC(=O)c1cnc(N)nc1OC (stereo not shown) [compound 771120],180 mg/kg,3.4 mg/kg
CCN1CCCC1CNC(=O)c1cnc(NC)nc1OC (stereo not shown) [compound 771226],110 mg/kg,1.4 mg/kg
CNc1ncc(C(=O)NC2CCN(Cc3ccccc3)CC2)c(OC)n1 [compound 771261],70 mg/kg,2.4 mg/kg
COc1nc(N)ncc1C(=O)NC1CCN(Cc2ccc(F)cc2)C1 (stereo not shown) [compound 771274],100 mg/kg,1.4 mg/kg
COc1nc(N)ncc1C(=O)NCC1CCCN1C (stereo not shown) [compound 780079],225 mg/kg,11 mg/kg
COc1nc(C)ncc1C(=O)NCc1cccn1C [compound 780204],400 mg/kg,50 mg/kg
COc1nc(C)ncc1C(=O)NC1CCN(Cc2ccccc2)C1 (stereo not shown) [compound 780326],130 mg/kg,5.8 mg/kg
CCN(CCNC(=O)c1cnc(C)nc1OC)Cc1ccccc1 [compound 780327],170 mg/kg,7 mg/kg
CCOc1nc(C)ncc1C(=O)NCC1CCCN1CC (stereo not shown) [compound 780336],170 mg/kg,1.8 mg/kg
CCCOc1nc(C)ncc1C(=O)NCC1CCCN1CC (stereo not shown) [compound 780432],170 mg/kg,7.5 mg/kg
CCCCN1CCCC1CNC(=O)c1cnc(C)nc1OC (stereo not shown) [compound 780457],160 mg/kg,17 mg/kg
COc1nc(C)ncc1C(=O)NCC1CCCN1Cc1ccccc1 (stereo not shown) [compound 780458],140 mg/kg,13 mg/kg
COc1nc(C)ncc1C(=O)NCC1CCCN1Cc1ccc(F)cc1 (stereo not shown) [compound 780505],155 mg/kg,15 mg/kg
COc1ccccc1N1CCN(CCNC(=O)c2cnc(C)nc2OC)CC1 [compound 780521],140 mg/kg,5.25 mg/kg

Structure (SMILES),LD50 [1],ED50 [2]
COc1nc(C)ncc1C(=O)NCCN1CCN(c2ccccc2)CC1 [compound 780522],130 mg/kg,10 mg/kg
CCCN1CCCC1CNC(=O)c1cnc(C)nc1OC (stereo not shown) [compound 780552],140 mg/kg,12.5 mg/kg
COc1nc(C)ncc1C(=O)NC1CCN(Cc2ccc(F)cc2)C1 (stereo not shown) [compound 780560],100 mg/kg,3 mg/kg
CCN1CCCC1CNC(=O)c1cnc(C)nc1OC(C)C (stereo not shown) [compound 780561],170 mg/kg,3.3 mg/kg
CCN1CCC[C@H]1CNC(=O)c1cnc(C)nc1OC [compound 780648],200 mg/kg,3.2 mg/kg
CCOc1nc(C)ncc1C(=O)NCCN(CC)Cc1ccccc1 [compound 780656],140 mg/kg,6 mg/kg
COc1nc(C)ncc1C(=O)NCC1CCCN1C (stereo not shown) [compound 780680],275 mg/kg,7.2 mg/kg
COc1nc(C)ncc1C(=O)NCCN1CCN(c2ccc(F)cc2)CC1 [compound 780686],115 mg/kg,10 mg/kg
CCCc1ncc(C(=O)NCC2CCCN2CC)c(OC)n1 (stereo not shown) [compound 780700],200 mg/kg,17 mg/kg
C=CCN1CCCC1CNC(=O)c1cnc(C)nc1OC (stereo not shown) [compound 780784],280 mg/kg,5.5 mg/kg
COc1nc(C)ncc1C(=O)NCC1CCCN1CC1CCCCC1 (stereo not shown) [compound 780836],140 mg/kg,9 mg/kg
CCN(CCNC(=O)c1cnc(C)nc1OC)CC1CCCCC1 [compound 780866],120 mg/kg,4.7 mg/kg
CCN(CCNC(=O)c1cnc(C)nc1OC)Cc1ccc(F)cc1 [compound 780886],140 mg/kg,10 mg/kg
CCOc1nc(C)ncc1C(=O)NCCN(CC)Cc1ccc(F)cc1 [compound 780887],140 mg/kg,1 mg/kg
CCOc1nc(C)ncc1C(=O)NC[C@@H]1CCCN1CC [compound 780905],175 mg/kg,0.88 mg/kg
CCN1CCCC1CNC(=O)c1cnc(C(C)C)nc1OC (stereo not shown) [compound 780907],120 mg/kg,10 mg/kg
CCOc1nc(C)ncc1C(=O)NCC1CCCN1C (stereo not shown) [compound 781017],150 mg/kg,4.1 mg/kg
"CCOc1nc(CC)ncc1C(=O)NCC1CCCN1C (stereo not shown) [compound 781021, 4-ethoxy 2-ethyl 5-(1-methylpyrrolidin-2-yl)methylamino carbonyl pyrimidine, fumarate]",115 mg/kg,10.5 mg/kg
CCOc1nc(CC)ncc1C(=O)NCC1CCCN1CC (stereo not shown) [compound 781022],140 mg/kg,3 mg/kg
CCOc1nc(N(C)C)ncc1C(=O)NC[C@@H]1CCCN1CC [compound 781170],120 mg/kg,2.3 mg/kg
CCN1CCC[C@H]1CNC(=O)c1cnc(N(C)C)nc1OC [compound 781171],100 mg/kg,3 mg/kg
